Reference: US4789681A, “Cytoprotective guanidine derivatives useful in ischemic diseases” (Italfarmaco S.p.A., priority 1985, dated 1988)

How the values were obtained:
[1] = test system: rat (cerebral ischemia); assay: In vivo activity in the rat: cerebral ischemia, EEG recovery; conditions: 3 mg/kg i.v., 10' before test
Protocol: The model described by Kramer (Kramer W., Tuynmann J. A.; Brain Research 6, 686 (1967)) has been used.
Two electrodes for the bipolar recording of EEG (occipito-cervical and cerebellar area) were applied to rats, anaesthetized with N2 O (70%) and O2 (30%), after i.v. tubocurarine treatment. Ischemia was induced by increasing the intracranial pressure in cisterna magna with artificial C.S.F. and for the duration of 1 minute. EEG was recorded 3' before ischemia, during the first 6 minutes of the recirculation and up to 30' after ischemia. The time for a complete EEG recovering was measured.
The compounds were administered i.v. 10' before test.

[2] = test system: rat (cardiac ischemia); assay: In vivo activity in the rat: cardiac ischemia and reperfusion by ligation of the left coronary artery; conditions: iv, 3 mg/kg, 10' to 30' before ligation
Description: It has been used a cardiac ischemia and reperfusion model, on the anaesthetized rat, by ligation of the left coronary artery as described by C. […] In said model, after the ischemic state induced by the coronary ligation, the reperfusion of the cardiac tissue follows the release of the ligation itself. In said situation tachycardias, extrasystoles ventricular fibrillations are observed, followed, in most cases, by the animal's death.
This applies in both situation: hypoxia and reperfusion.

For `COC(=O)[C@@H](N)CCCNC(=N)N` [L.A.M., Larginine methylester, reference compound], the EEG recovery time [1] was 61 ± 8 s.
Work on `COC(=O)[C@H](N)CCCNC(=N)N` [D.A.M., Darginine methylester, reference compound] yielded an EEG recovery time [1] of 45 ± 6 s.
`COC(=O)[C@H](N)CCNNC(=N)N` [4a(R), methyl-(R)-2-amino-4-guanidylamino-butyrrate] showed an EEG recovery time [1] of 58 ± 7 s.
`COC(=O)[C@H](N)[C@H]1CC[C@@H](NC(=N)N)CC1` [7a(R), Methyl (R) (1',4' cis or trans)-2-amino-2-(4'-guanidinocyclohexyl)-acetate] gave an EEG recovery time [1] of 49 ± 6 s.
In the case of `CN=C(N)NCCC[C@@H](N)C(=O)OC` [2b(R), (R)-N^G -methyl-arginine methylester], the “% effects (with respect to controls in the same situation) on death-rate” value [2] is reported as 10%, the “% effects (with respect to controls in the same situation) on fibrillations” value [2] is reported as 50% and the “% effects (with respect to controls in the same situation) on tachycardia V.” value [2] is reported as 60%.
In the case of `COC(=O)[C@@H](N)[C@H]1CC[C@@H](NC(=N)N)CC1` [7a(S), Methyl (S) (1',4' cis or trans)-2-amino-2-(4'-guanidinocyclohexyl)-acetate], the EEG recovery time [1] is reported as 43 ± 5 s.
For `COC(=O)[C@H](N)c1ccc(NC2=NCCN2)cc1` (single isomer, unassigned) [10a(R), Methyl (R) or (S) 2-amino-2-(4'-imidazolinyl-amino-phenilacetate], the EEG recovery time [1] was 62 ± 8 s.
